Data from US11851459B2, “Methods and uses of modulators of anaphase promoting complex (APC) activity for treating cancer” (University of Saskatchewan, priority 2018, dated 2023).

How the values were obtained:
MDA-MB-231 cells = assay: Scratch assay, migration of MDA-MB-231 cells; format: cell-based, human
Description: A. An equal number of MDA-MB-231 TNBC cells were grown to confluence in 6 well plates. The cells were then treated with increasing doses of metformin (0, 1, 5 and 10 mM) and a scratch was made in the cell lawn creating a void. At the times shown the number of cell that migrated into the void were counted. The experiment was repeated twice. B. WT MDA-MB-231 cells and cells stably expressing the C43-4 plasmid were grown as in A. Control cells were left untreated, with other cells treated with the DMSO control, 1 uM DOX or 2.5 uM M2I-1. A void was created in the cell lawn and the number of cells that entered the void were scored as above. This experiment was repeated 4 times. This experiment was also repeated 4 times in an independently generated stable C43-4 cell line with similar results. The error of the mean is shown. C. WT and MDA-MB-231 cells stably expressing the C2-4B peptide plasmid were used for the scratch assay as described above. D. WT and MDA-MB-231 cells stably expressing the C13-3 peptide plasmid were used for the scratch assay as described above. The experiments in C and D were only performed once.
Assays using WT and C43-4 expressing cells have been done 4 times. Assays using C13-3 and C2-4B cells have only been conducted once. Metformin treated cells have been used twice. For scratch assays, a scratch is made down a confluent plate of cells, leaving a void. The number of cells that migrate back into the void over time is determined.

apc10Δ cells = assay: apc10Δ temperature sensitive growth, spot dilutions; format: cell-based, yeast; conditions: 30 and 34° C., weakly expressed on glucose
Text: A. Yeast 2-hybrid (Y2H) cells expressing the APC subunit bait and the galactose inducible Apc10 peptide prey grown on glucose or galactose. Cells co-expressing the Apc5 or Apc10-bait and Apc10 aptamer-prey vectors were spotted onto the appropriate media, in the presence or absence of galactose (the aptamers are Gal inducible), to confirm Y2H interactions. Growth on trp^− his^− media ensures both plasmids are maintained. A Y2H interaction will drive expression of the ADE2 gene, allowing growth on ade^− media. B. Aptamers that bind Apc10 can suppress APC mutant phenotypes. Spot dilutions of apc10Δ cells expressing an empty vector control or the one of 6 Apc10 aptamers tested. Log phase cells were 10-fold serially diluted and spotted onto plates containing either 2% glucose or 2% galactose. The plates were then incubated at 30° C. (permissive temperature) and 34° C. (restrictive stress). C. Peptides identified as binding to the yeast Apc10 APC subunit using the Y2H screen increase growth of wildtype (WT) cells. […]
The six peptide expressing vectors were transformed into apc10Δ cells and assessed for temperature sensitive growth. […]
Over 100 peptides that bound either Apc5 or Apc10 were recovered from millions screened. […] Vectors expressing these 6 peptides were transformed into WT or APC mutant cells and assessed for ts growth.

WT cells = assay: Stationary phase WT cells spot diluted (chronological lifespan / stress resistance); format: cell-based, yeast; conditions: FIG. 2B; for stress resistance: WT cells grown to stationary phase, spot diluted; for chronological lifespan: WT cells
Description: A. apc5^CA (temperature sensitive allele) cells were transformed with C43-4 or an empty vector. Cells grown overnight in 2% Glu were struck onto 2% Glucose plates and used for the yeast RLS assay. From the top left hand corner of the figures, top line is WT +empty vector, middle line is apc5^CA+C43-4 peptide and bottom line is apc5^CA+empty vector. B. WT cells transformed with C43-4, C2-4B or an empty vector were grown to stationary phase in 2% Glu media, then after 2 days spot diluted onto 2% Glu or 2% Gal to induce expression of the peptides.

Apc10 = biological target: T1, Apc10 (Saccharomyces cerevisiae, UniProt P53068); assay: Yeast 2-hybrid (Y2H) assay, Apc10 bait; format: binding
T1 construct: expressed in transfected cells; host or cells: yeast Y2H cells
T1 sequence (P53068 1-250): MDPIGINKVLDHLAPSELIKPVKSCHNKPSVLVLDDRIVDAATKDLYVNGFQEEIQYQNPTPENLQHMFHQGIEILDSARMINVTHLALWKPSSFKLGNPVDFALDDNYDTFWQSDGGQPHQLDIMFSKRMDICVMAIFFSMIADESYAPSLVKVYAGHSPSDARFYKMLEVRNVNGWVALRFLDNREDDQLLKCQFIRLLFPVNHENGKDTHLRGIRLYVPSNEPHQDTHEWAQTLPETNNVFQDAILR
Description: (§1) The reverse genetic screen utilized a yeast 2-hybrid (Y2H) protocol that selected for peptides that bound to the APC subunits Apc5 or Apc10 (see FIG. 8 for APC structure), to assess whether peptide-binding might modify APC function. Peptides that bound APC subunits were then assayed for those that suppressed APC mutant defects.
A library of random small peptides were cloned into a Thioredoxin (Trx) scaffold (see FIG. 9 for Trx-peptide structure) and expressed from a galactose-inducible Y2H prey vector in cells expressing the Apc10 bait vector (the modified Apc10 is still part of the complete APC complex). Six peptides that reproducibly interacted with the Apc10 bait construct in Y2H assays were identified (FIG. 1A) and were examined further. Cells will only grow in this assay if the peptide interacts with Apc5 or Apc10.
To identify peptides that bound to either Apc5 or Apc10 proteins using a yeast 2-hybrid (Y2H) screen, random small peptides were cloned into the TrxA scaffold (library provided by R. Geyer; FIG. 9) and expressed from a galactose-inducible Y2H prey vector in cells harboring either the APC5 or APC10 genes cloned into the Y2H bait vectors (APC5/APC10 bait constructs complement APC mutant defects).
(§2) Over 100 peptides that bound either Apc5 or Apc10 were recovered from millions screened. Six peptides that reproducibly interacted with the Apc5 or Apc10 bait construct in Y2H assays were examined further. Vectors expressing these 6 peptides were transformed into WT or APC mutant cells and assessed for ts growth.

[1] = tested on: apc5 temperature sensitive mutant and/or apc10Δ mutant; assay: Viability of APC mutant yeast (spot dilution); format: cell-based
Text: Suitable APC activators also include APC activators that increase the cell viability of an wild-type and/or an APC mutant cell by at least 10%, at least 20%, at least 30%, at least 40%, at least 50%, at least 60%, at least 70% or at least 80% compared to a cell with wild-type APC function. […] Examples of yeast cells with defective APC function include apc5 and apc10 mutants. An example of an apc5 mutant is the apc5 temperature sensitive mutant described herein. An example of an apc10 mutant is the apc10 deletion mutant described herein. Viability of a yeast mutant can be measured for example, by the spot dilution assays described herein or any other method known in the art.
as §1, §2

Sequence	metastatic potential / in vitro migration (MDA-MB-231 cells)	apc10Δ growth phenotype (apc10Δ cells)	stress resistance (WT cells)	chronological lifespan (WT cells)	binds Apc10 in a yeast 2 hybrid assay (Apc10)	viability of an APC mutant [1]
NGSSHNDLRVRRLTLISRLC [C43-4]	inhibit the in vitro migration	suppressed the apc10Δ growth phenotype	increase stress resistance	improved chronological lifespan	Binds Apc10	increases the viability
RMPQWWQWMWV [C2-4B]	inhibit the in vitro migration	suppressed the apc10Δ growth phenotype	increase stress resistance	improved chronological lifespan	Binds Apc10	increases the viability of an APC mutant
